Values quoted from earlier work in US20080176908A1, “Method of using squalene monooxygenase inhibitors to treat acne” (priority 2007, published 2008).

Conditions: compared with 2.5% hydrocortisone; test details not given

Row | SMILES | anti-inflammatory ability
1 | Cc1cc(C2CCCCC2)n(O)c(=O)c1 [Ciclopirox, 6-cylcohexyl-1-hydroxy-4-methyl-pyridin-2-one] | greater anti-inflammatory ability than 2.5% hydrocortisone
2 | CN(C/C=C/c1ccccc1)Cc1cccc2ccccc12 [naftifine, (E)-N-cinnamyl-N-methyl-1-naphthalenemethylamine] | greater anti-inflammatory ability than 2.5% hydrocortisone
3 | CN(CC=CC#CC(C)(C)C)Cc1cccc2ccccc12 [terbinafine, N,6,6-trimethyl-N-(naphthalene-1-ylmethyl)hept-2-en-4-yn-1-amine] | greater anti-inflammatory ability than 2.5% hydrocortisone
